From ChEMBL document CHEMBL4425114, “Development of Novel Alkoxyisoxazoles as Sigma-1 Receptor Antagonists with Antinociceptive Efficacy” (J Med Chem, 2016)

What was measured:
[1] = target: Sigma non-opioid intracellular receptor 1 (Rattus norvegicus, UniProt Q9R0C9); test: Displacement of [3H]-pentazocine from rat brain sigma1 receptor by PDSP assay
[2] = target: T1, Sigma intracellular receptor 2 (Rattus norvegicus) (UniProt Q5U3Y7); test: Displacement of [3H]DTG from rat brain sigma2 receptor at 10 uM by PDSP assay
T1 sequence (whole entry): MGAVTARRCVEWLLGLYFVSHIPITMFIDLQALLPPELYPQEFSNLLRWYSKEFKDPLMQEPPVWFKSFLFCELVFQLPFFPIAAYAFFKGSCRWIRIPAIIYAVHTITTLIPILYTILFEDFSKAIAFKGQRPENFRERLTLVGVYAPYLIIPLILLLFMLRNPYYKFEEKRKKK

[3] = target: T2, Sigma intracellular receptor 2 (Rattus norvegicus, UniProt Q5U3Y7); test: Displacement of [3H]DTG from rat brain sigma2 receptor by PDSP assay
T2 sequence (Q5U3Y7 whole entry): T1 sequence (whole entry)

[4] = target: Sigma non-opioid intracellular receptor 1 (Rattus norvegicus) (UniProt Q9R0C9); test: Displacement of [3H]-pentazocine from rat brain sigma1 receptor at 10 uM by PDSP assay
Chain of Sigma non-opioid intracellular receptor 1 (Rattus norvegicus) (Q9R0C9 whole entry): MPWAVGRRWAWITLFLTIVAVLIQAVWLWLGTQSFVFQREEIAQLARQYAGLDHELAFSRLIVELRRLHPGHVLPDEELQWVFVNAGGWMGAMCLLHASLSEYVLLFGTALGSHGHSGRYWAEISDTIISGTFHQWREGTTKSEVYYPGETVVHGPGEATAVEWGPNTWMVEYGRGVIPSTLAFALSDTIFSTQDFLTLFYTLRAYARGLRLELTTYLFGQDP

Chain of Sigma non-opioid intracellular receptor 1 (Q9R0C9 whole entry): as above

SMILES	Ki [1] [nM]	inhibition [2] [%]	Ki [3] [nM]	inhibition [4] [%]
O=C(Nc1ccccc1)c1cc(OC[C@@H]2CCCN2)no1	130	< 50	> 10000	–
NCCOc1cc(COc2ccccc2)on1	63.9	< 50	> 10000	–
O=C(c1cc(OC[C@@H]2CCCN2)no1)N1CCc2ccccc21	13.9	< 50	> 10000	–
c1ccc(OCc2cc(OCCN3CCOCC3)no2)cc1	403	< 50	> 10000	–
O=C(Oc1ccccc1)c1cc(OC[C@@H]2CCCN2)no1	> 10000	< 50	> 10000	< 50
CCNCCOc1cc(COc2ccccc2)on1	3.7	–	987	–
FC(F)(F)c1ccc(OCc2cc(OC[C@@H]3CCCN3)no2)cc1	13.3	–	91.7	–
c1ccc(SCc2cc(OC[C@@H]3CCCN3)no2)cc1	65.4	–	1030	–
CN(CCOc1cc(COc2cccc(F)c2)on1)CC1CC1	0.9	–	314	–
CN(CCOc1cc(COc2cccc(Cl)c2)on1)C1CCCCC1	0.5	–	15.1	–
FC(F)(F)c1cccc(OCc2cc(OC[C@@H]3CCCN3)no2)c1	6.6	–	88	–
CCN(C)CCOc1cc(COc2ccccc2)on1	18.4	–	820	–
COc1cccc(OCc2cc(OC[C@@H]3CCCN3)no2)c1	31.1	< 50	> 10000	–
CN(CCOc1cc(COc2cccc(Cl)c2)on1)CC1CC1	1.1	–	123	–
CN1CCC[C@H]1COc1cc(COc2cccc(Cl)c2)on1	1.4	–	371	–
NCCCOc1cc(COc2ccccc2)on1	2310	< 50	> 10000	–
c1ccc(OCc2cc(OC[C@H]3CCCN3)no2)cc1	37.4	–	508	–
CN1CCC(COc2cc(COc3ccccc3)on2)CC1	96.4	–	216	–
CN(CCOc1cc(COc2cccc(F)c2)on1)C1CCCCC1	0.5	–	24.5	–

SMILES	Ki [1] [nM]	inhibition [2] [%]	Ki [3] [nM]	inhibition [4] [%]
CN1CCC[C@@H]1COc1cc(COc2ccccc2)on1	23.1	–	411	–
c1ccc(OCc2cc(OCC3CCNCC3)no2)cc1	356	–	284	–
COc1ccc(OCc2cc(OC[C@@H]3CCCN3)no2)cc1	210	–	675	–
Fc1ccc(OCc2cc(OC[C@@H]3CCCN3)no2)cc1	4.4	–	471	–
Cc1cccc(OCc2cc(OC[C@@H]3CCCN3)no2)c1	4	–	341	–
CNCCOc1cc(COc2ccccc2)on1	80.8	< 50	> 10000	–
c1ccc(OCc2cc(N3CCOCC3)no2)cc1	> 10000	< 50	> 10000	< 50
c1ccc(OCc2cc(N3CCCCC3)no2)cc1	> 10000	< 50	> 10000	< 50
Brc1cccc(OCc2cc(OC[C@@H]3CCCN3)no2)c1	3.2	–	85.9	–
CN1CCN(c2cc(COc3ccccc3)on2)CC1	63.9	–	2200	–
c1ccc2cc(OCc3cc(OC[C@@H]4CCCN4)no3)ccc2c1	36.6	–	153	–
Brc1ccc(OCc2cc(OC[C@@H]3CCCN3)no2)cc1	18.3	–	137	–
CN(CCOc1cc(COc2ccccc2)on1)C1CCCC1	0.5	–	73.7	–
CN1CCC[C@H]1COc1cc(COc2cccc(F)c2)on1	0.7	–	687	–
Clc1cccc(OCc2cc(N3CCNCC3)no2)c1	36.5	–	687	–
CN(C)CCOc1cc(COc2ccccc2)on1	> 10000	< 50	> 10000	< 50
Clc1ccc(OCc2cc(OC[C@@H]3CCCN3)no2)cc1	13	–	139	–
O=C(Nc1ccccc1)OCc1cc(OC[C@@H]2CCCN2)no1	299	< 50	> 10000	–
